Like-named read-outs stand apart in the source and are kept apart here.
Molecular target: IKZF2 (Helios) (Homo sapiens, UniProt Q96SW2+Q9UKS7)
Test: Prolabel quantification of IKZF2 protein levels in 293GT cells
Type: cell-based
Settings: 24 h, read-out: IKZF2 % protein reduction at 10 μM, 24 h
[1] = Pro-label assay, 293GT cells, 10 μM

Sequence of IKZF2 (Helios) (Q9UKS7 whole entry): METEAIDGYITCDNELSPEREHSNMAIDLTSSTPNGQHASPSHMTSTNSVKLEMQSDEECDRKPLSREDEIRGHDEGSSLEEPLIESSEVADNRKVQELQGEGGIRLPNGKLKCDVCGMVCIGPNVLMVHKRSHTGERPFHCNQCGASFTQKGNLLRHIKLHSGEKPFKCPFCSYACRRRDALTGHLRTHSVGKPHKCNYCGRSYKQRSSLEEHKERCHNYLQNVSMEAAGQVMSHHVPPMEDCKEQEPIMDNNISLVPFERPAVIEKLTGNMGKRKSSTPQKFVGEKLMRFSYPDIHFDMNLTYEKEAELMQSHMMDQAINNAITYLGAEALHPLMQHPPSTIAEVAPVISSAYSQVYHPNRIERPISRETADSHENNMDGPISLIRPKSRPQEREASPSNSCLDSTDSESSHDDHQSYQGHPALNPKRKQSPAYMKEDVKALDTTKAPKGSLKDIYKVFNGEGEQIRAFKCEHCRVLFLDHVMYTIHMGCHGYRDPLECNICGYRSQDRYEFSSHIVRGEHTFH
Sequence of IKZF2 (Helios) (Q96SW2 whole entry): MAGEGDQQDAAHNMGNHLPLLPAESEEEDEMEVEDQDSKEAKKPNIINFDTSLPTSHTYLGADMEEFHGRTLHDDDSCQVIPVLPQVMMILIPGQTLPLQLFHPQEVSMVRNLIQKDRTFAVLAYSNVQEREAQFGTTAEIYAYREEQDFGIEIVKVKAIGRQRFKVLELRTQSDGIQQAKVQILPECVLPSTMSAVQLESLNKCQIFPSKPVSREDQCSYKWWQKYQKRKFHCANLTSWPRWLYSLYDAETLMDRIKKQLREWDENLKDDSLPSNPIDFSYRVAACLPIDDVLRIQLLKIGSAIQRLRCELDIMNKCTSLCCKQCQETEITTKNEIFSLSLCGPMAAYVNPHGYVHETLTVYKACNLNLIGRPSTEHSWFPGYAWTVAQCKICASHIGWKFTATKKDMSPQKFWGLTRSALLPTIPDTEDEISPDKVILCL
Sequence of IKZF2 (Helios) (Q16531 whole entry partner): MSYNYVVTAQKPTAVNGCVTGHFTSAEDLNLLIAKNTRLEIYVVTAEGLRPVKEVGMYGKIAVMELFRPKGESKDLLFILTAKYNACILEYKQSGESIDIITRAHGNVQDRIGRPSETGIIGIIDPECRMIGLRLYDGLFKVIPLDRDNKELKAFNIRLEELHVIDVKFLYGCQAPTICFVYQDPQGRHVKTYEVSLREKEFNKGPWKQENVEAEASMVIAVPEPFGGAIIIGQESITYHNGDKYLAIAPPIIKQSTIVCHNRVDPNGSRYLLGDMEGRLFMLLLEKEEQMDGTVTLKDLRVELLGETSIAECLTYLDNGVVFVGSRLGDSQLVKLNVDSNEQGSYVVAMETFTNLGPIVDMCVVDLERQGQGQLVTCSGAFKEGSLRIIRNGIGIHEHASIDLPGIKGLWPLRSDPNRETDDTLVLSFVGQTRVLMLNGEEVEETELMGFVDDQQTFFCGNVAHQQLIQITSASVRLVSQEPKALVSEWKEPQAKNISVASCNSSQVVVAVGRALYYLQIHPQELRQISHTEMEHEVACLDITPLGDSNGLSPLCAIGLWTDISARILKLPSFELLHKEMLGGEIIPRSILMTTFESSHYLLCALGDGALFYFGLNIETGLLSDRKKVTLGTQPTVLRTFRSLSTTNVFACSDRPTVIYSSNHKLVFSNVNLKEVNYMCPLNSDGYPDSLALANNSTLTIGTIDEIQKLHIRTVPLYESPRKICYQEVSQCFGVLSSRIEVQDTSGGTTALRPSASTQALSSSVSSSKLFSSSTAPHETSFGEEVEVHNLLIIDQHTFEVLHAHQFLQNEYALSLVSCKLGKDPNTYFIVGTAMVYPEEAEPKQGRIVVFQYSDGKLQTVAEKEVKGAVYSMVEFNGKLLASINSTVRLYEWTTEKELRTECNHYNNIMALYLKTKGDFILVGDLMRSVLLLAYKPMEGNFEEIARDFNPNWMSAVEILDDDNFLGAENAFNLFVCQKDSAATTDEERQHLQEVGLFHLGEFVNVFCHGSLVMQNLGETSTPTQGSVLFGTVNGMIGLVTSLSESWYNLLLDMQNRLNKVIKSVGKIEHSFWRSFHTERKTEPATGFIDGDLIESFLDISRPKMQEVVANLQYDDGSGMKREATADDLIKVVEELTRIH

SMILES	IKZF2 % protein reduction at 10 µM [1] [%]	IKZF2 % protein reduction at 10 µM [%]
CO[C@H]1CC[C@H](CN[C@H]2CCCCC[C@@H]2Oc2ccc3c(c2)CN(C2CCC(=O)NC2=O)C3=O)CC1 (stereo partly drawn) [I-64, 3-(5-(((1S,2S)-2-((((1r,4S)-4-methoxycyclohexyl)methyl)amino)cycloheptyl)oxy)-1-oxoisoindolin-2-yl)piperidine-2,6-dione]	84	–
O=C1CCC(N2Cc3cc(O[C@H]4CCCCC[C@@H]4NCC4CCOCC4)ccc3C2=O)C(=O)N1 (stereo partly drawn) [I-65, 3-(1-oxo-5-(((1S,2S)-2-(((tetrahydro-2H-pyran-4-yl)methyl)amino)cycloheptyl)oxy)isoindolin-2-yl)piperidine-2,6-dione]	76	–
CC1(CN[C@H]2CCCCC[C@@H]2Oc2ccc3c(c2)CN(C2CCC(=O)NC2=O)C3=O)COC1 (stereo partly drawn) [I-66, 3-(5-(((1S,2S)-2-(((3-methyloxetan-3-yl)methyl)amino)cycloheptyl)oxy)-1-oxoisoindolin-2-yl)piperidine-2,6-dione]	81	–
O=C1CCC(N2Cc3cc(O[C@H]4CCCCC[C@@H]4NCC45CC(F)(C4)C5)ccc3C2=O)C(=O)N1 (stereo partly drawn) [I-67, 3-(5-(((1S,2S)-2-(((3-fluorobicyclo[1.1.1]pentan-1-yl)methyl)amino)cycloheptyl)oxy)-1-oxoisoindolin-2-yl)piperidine-2,6-dione]	74	–
COC1CN([C@H]2CCCCC[C@@H]2Oc2ccc3c(c2)CN(C2CCC(=O)NC2=O)C3=O)C1 (stereo partly drawn) [I-68, 3-(5-(((1S,2S)-2-(3-methoxyazetidin-1-yl)cycloheptyl)oxy)-1-oxoisoindolin-2-yl)piperidine-2,6-dione]	90	–
O=C1CCC(N2Cc3cc(O[C@H]4CCCCC[C@@H]4NCC4CC(F)(F)C4)ccc3C2=O)C(=O)N1 (stereo partly drawn) [I-69, 3-(5-(((1S,2S)-2-(((3,3-difluorocyclobutyl)methyl)amino)cycloheptyl)oxy)-1-oxoisoindolin-2-yl)piperidine-2,6-dione]	84	–
CCCN[C@H]1CCCC[C@@H]1Oc1ccc2c(c1)CN(C1CCC(=O)NC1=O)C2=O (stereo partly drawn) [I-71, 3-(1-oxo-5-(((1S,2S)-2-(propylamino)cyclohexyl)oxy)isoindolin-2-yl)piperidine-2,6-dione]	88	–
CCCN(CCC)[C@H]1CCCC[C@@H]1Oc1ccc2c(c1)CN(C1CCC(=O)NC1=O)C2=O (stereo partly drawn) [I-72, 3-(5-(((1S,2S)-2-(dipropylamino)cyclohexyl)oxy)-1-oxoisoindolin-2-yl)piperidine-2,6-dione]	57	–
O=C1CCC(N2Cc3cc(O[C@H]4CCCC[C@@H]4NCc4ccncc4)ccc3C2=O)C(=O)N1 (stereo partly drawn) [I-73, 3-(1-oxo-5-(((1S,2S)-2-((pyridin-4-ylmethyl)amino)cyclohexyl)oxy)isoindolin-2-yl)piperidine-2,6-dione]	66	–
O=C1CCC(N2Cc3cc(O[C@H]4CCCC[C@@H]4N4CC5(COC5)C4)ccc3C2=O)C(=O)N1 (stereo partly drawn) [I-74, 3-(5-(((1S,2S)-2-(2-oxa-6-azaspiro[3.3]heptan-6-yl)cyclohexyl)oxy)-1-oxoisoindolin-2-yl)piperidine-2,6-dione]	58	–
O=C1CCC(N2Cc3cc(O[C@H]4CCCC[C@@H]4NCc4cccnc4)ccc3C2=O)C(=O)N1 (stereo partly drawn) [I-75, 3-(1-oxo-5-(((1S,2S)-2-((pyridin-3-ylmethyl)amino)cyclohexyl)oxy)isoindolin-2-yl)piperidine-2,6-dione]	79	–
CCn1cc(CN[C@H]2CCCC[C@@H]2Oc2ccc3c(c2)CN(C2CCC(=O)NC2=O)C3=O)cn1 (stereo partly drawn) [I-76, 3-(5-(((1S,2S)-2-(((1-ethyl-1H-pyrazol-4-yl)methyl)amino)cyclohexyl)oxy)-1-oxoisoindolin-2-yl)piperidine-2,6-dione]	–	79
CC(C)n1cc(CN[C@H]2CCCC[C@@H]2Oc2ccc3c(c2)CN(C2CCC(=O)NC2=O)C3=O)cn1 (stereo partly drawn) [I-77, 3-(5-(((1S,2S)-2-(((1-isopropyl-1H-pyrazol-4-yl)methyl)amino)cyclohexyl)oxy)-1-oxoisoindolin-2-yl)piperidine-2,6-dione]	86	–
CCN(C)[C@H]1CCCC[C@@H]1Oc1ccc2c(c1)CN(C1CCC(=O)NC1=O)C2=O (stereo partly drawn) [I-78, 3-(5-(((1S,2S)-2-(ethyl(methyl)amino)cyclohexyl)oxy)-1-oxoisoindolin-2-yl)piperidine-2,6-dione]	50	–
CCN[C@H]1CCCC[C@@H]1Oc1ccc2c(c1)CN(C1CCC(=O)NC1=O)C2=O (stereo partly drawn) [I-79, 3-(5-(((1S,2S)-2-(ethylamino)cyclohexyl)oxy)-1-oxoisoindolin-2-yl)piperidine-2,6-dione]	85	–
CN(C)[C@H]1CCCC[C@@H]1Oc1ccc2c(c1)CN(C1CCC(=O)NC1=O)C2=O (stereo partly drawn) [I-80, 3-(5-(((1S,2S)-2-(dimethylamino)cyclohexyl)oxy)-1-oxoisoindolin-2-yl)piperidine-2,6-dione]	65	–
O=C1CCC(N2Cc3cc(O[C@H]4CCCC[C@@H]4NCC4COC4)ccc3C2=O)C(=O)N1 (stereo partly drawn) [I-81, 3-(5-(((1S,2S)-2-((oxetan-3-ylmethyl)amino)cyclohexyl)oxy)-1-oxoisoindolin-2-yl)piperidine-2,6-dione]	85	–

SMILES	IKZF2 % protein reduction at 10 µM [1] [%]	IKZF2 % protein reduction at 10 µM [%]
O=C1CCC(N2Cc3cc(O[C@H]4CCCC[C@@H]4NCCO)ccc3C2=O)C(=O)N1 (stereo partly drawn) [I-82, 3-(5-(((1S,2S)-2-((2-hydroxyethyl)amino)cyclohexyl)oxy)-1-oxoisoindolin-2-yl)piperidine-2,6-dione]	58	–
O=C1CCC(N2Cc3cc(O[C@H]4CCCC[C@@H]4N4CCCC4)ccc3C2=O)C(=O)N1 (stereo partly drawn) [I-83, 3-(1-oxo-5-(((1S,2S)-2-(pyrrolidin-1-yl)cyclohexyl)oxy)isoindolin-2-yl)piperidine-2,6-dione]	86	–
O=C1CCC(N2Cc3cc(O[C@H]4CCCC[C@@H]4N4CCOCC4)ccc3C2=O)C(=O)N1 (stereo partly drawn) [I-84, 3-(5-(((1S,2S)-2-morpholinocyclohexyl)oxy)-1-oxoisoindolin-2-yl)piperidine-2,6-dione]	35	–
O=C1CCC(N2Cc3cc(O[C@H]4CCCC[C@@H]4NCc4ccccn4)ccc3C2=O)C(=O)N1 (stereo partly drawn) [I-85, 3-(1-oxo-5-(((1S,2S)-2-((pyridin-2-ylmethyl)amino)cyclohexyl)oxy)isoindolin-2-yl)piperidine-2,6-dione]	69	–
CC(C)(O)CCN[C@H]1CCCC[C@@H]1Oc1ccc2c(c1)CN(C1CCC(=O)NC1=O)C2=O (stereo partly drawn) [I-86, 3-(5-(((1S,2S)-2-((3-hydroxy-3-methylbutyl)amino)cyclohexyl)oxy)-1-oxoisoindolin-2-yl)piperidine-2,6-dione]	76	–
CC1(CN[C@H]2CCCC[C@@H]2Oc2ccc3c(c2)CN(C2CCC(=O)NC2=O)C3=O)COC1 (stereo partly drawn) [I-87, 3-(5-(((1S,2S)-2-(((3-methyloxetan-3-yl)methyl)amino)cyclohexyl)oxy)-1-oxoisoindolin-2-yl)piperidine-2,6-dione]	79	–
COC1(C)CCN([C@H]2CCCC[C@@H]2Oc2ccc3c(c2)CN(C2CCC(=O)NC2=O)C3=O)CC1 (stereo partly drawn) [I-88, 3-(5-(((1S,2S)-2-(4-methoxy-4-methylpiperidin-1-yl)cyclohexyl)oxy)-1-oxoisoindolin-2-yl)piperidine-2,6-dione]	57	–
COC1CN([C@H]2CCCC[C@@H]2Oc2ccc3c(c2)CN(C2CCC(=O)NC2=O)C3=O)C1 (stereo partly drawn) [I-89, 3-(5-(((1S,2S)-2-(3-methoxyazetidin-1-yl)cyclohexyl)oxy)-1-oxoisoindolin-2-yl)piperidine-2,6-dione]	82	–
Cc1cccc(CN[C@H]2CCCC[C@@H]2Oc2ccc3c(c2)CN(C2CCC(=O)NC2=O)C3=O)n1 (stereo partly drawn) [I-90, 3-(5-(((1S,2S)-2-(((6-methylpyridin-2-yl)methyl)amino)cyclohexyl)oxy)-1-oxoisoindolin-2-yl)piperidine-2,6-dione]	–	57
COc1ccc(CN[C@H]2CCCC[C@@H]2Oc2ccc3c(c2)CN(C2CCC(=O)NC2=O)C3=O)nc1 (stereo partly drawn) [I-91, 3-(5-(((1S,2S)-2-(((5-methoxypyridin-2-yl)methyl)amino)cyclohexyl)oxy)-1-oxoisoindolin-2-yl)piperidine-2,6-dione]	58	–
COc1ccc(CN[C@H]2CCCC[C@@H]2Oc2ccc3c(c2)CN(C2CCC(=O)NC2=O)C3=O)cn1 (stereo partly drawn) [I-92, 3-(5-(((1S,2S)-2-(((6-methoxypyridin-3-yl)methyl)amino)cyclohexyl)oxy)-1-oxoisoindolin-2-yl)piperidine-2,6-dione]	60	–
CC(C)(O)CN[C@H]1CCCC[C@@H]1Oc1ccc2c(c1)CN(C1CCC(=O)NC1=O)C2=O (stereo partly drawn) [I-93, 3-(5-(((1S,2S)-2-((2-hydroxy-2-methylpropyl)amino)cyclohexyl)oxy)-1-oxoisoindolin-2-yl)piperidine-2,6-dione]	60	–
CC1(C#N)CC(CNC2CCCCC2Oc2ccc3c(c2)CN(C2CCC(=O)NC2=O)C3=O)C1 [I-95, (1R,3s)-3-((((1S,2S)-2-((2-(2,6-dioxopiperidin-3-yl)-1-oxoisoindolin-5-yl)oxy)cyclohexyl)amino)methyl)-1-methylcyclobutane-1-carbonitrile]	84	–
O=C1CCC(N2Cc3cc(O[C@H]4CCC[C@@H]4N4CCC(O)CC4)ccc3C2=O)C(=O)N1 (stereo partly drawn) [I-96, 3-(5-(((1S,2S)-2-(4-hydroxypiperidin-1-yl)cyclopentyl)oxy)-1-oxoisoindolin-2-yl)piperidine-2,6-dione]	81	–
O=C1CCC(N2Cc3cc(O[C@H]4CCCC[C@@H]4N4CCCCC4)ccc3C2=O)C(=O)N1 (stereo partly drawn) [I-97, 3-(1-oxo-5-(((1S,2S)-2-(piperidin-1-yl)cyclohexyl)oxy)isoindolin-2-yl)piperidine-2,6-dione]	36	–
O=C1CCC(N2Cc3cc(O[C@H]4CCCC[C@@H]4NCC4CCOCC4)ccc3C2=O)C(=O)N1 (stereo partly drawn) [I-98, 3-(1-oxo-5-(((1S,2S)-2-(((tetrahydro-2H-pyran-4-yl)methyl)amino)cyclohexyl)oxy)isoindolin-2-yl)piperidine-2,6-dione]	80	–

Reference: patent US11192877B2, “3-(5-hydroxy-1-oxoisoindolin-2-yl)piperidine-2,6-dione derivatives and uses thereof” (Novartis AG, priority 2018, dated 2021)
